According to ChEMBL document CHEMBL1201862, “PubChem BioAssay data set” (2004):
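Exposure lasted 48 hours, with cells grown in 96-well plates and compounds tested at five concentrations. GI50 marks 50% less growth.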 The source made the active and inactive calls. Rule as the data show it: active = GI50 up to about 1.1 µM and inactive = higher.

Columns and labels:
Experiment in all cases: growth of human tumour cells (NCI), 48 h
A498 = system: A498
A549 = system: A549
CAKI-1 = system: CAKI-1
CCRF-CEM = system: CCRF-CEM
HCT-15 = system: HCT-15
IGROV-1 = system: IGROV-1
KM12 = system: KM12
M14 = system: M14
MOLT-4 = system: MOLT-4
NCI-H226 = system: NCI-H226
NCI-H522 = system: NCI-H522
OVCAR-3 = system: OVCAR-3
RXF 393 = system: RXF 393
SF-268 = system: SF-268
SK-MEL-28 = system: SK-MEL-28
SK-MEL-2 = system: SK-MEL-2
SK-OV-3 = system: SK-OV-3
UACC-62 = system: UACC-62
HT-29 = system: HT-29
SN12C = system: SN12C

| Structure (SMILES) | GI50 (A498) | GI50 (A549) | GI50 (CAKI-1) | GI50 (CCRF-CEM) | GI50 (HCT-15) [µM] | GI50 (IGROV-1) | GI50 (KM12) | GI50 (M14) | GI50 (MOLT-4) | GI50 (NCI-H226) | GI50 (NCI-H522) | GI50 (OVCAR-3) | GI50 (RXF 393) | GI50 (SF-268) | GI50 (SK-MEL-28) | GI50 (SK-MEL-2) | GI50 (SK-OV-3) | GI50 (UACC-62) | GI50 (HT-29) | GI50 (SN12C) |
| --- | --- | --- | --- | --- | --- | --- | --- | --- | --- | --- | --- | --- | --- | --- | --- | --- | --- | --- | --- | --- |
| OC(c1cc(C(F)(F)F)nc2c(Cl)cc(Cl)cc12)C1CCCCN1 (stereo unspecified) | > 36.1 µM (inactive) | 20.5 µM (inactive) | 8.97 µM (inactive) | 1.27 µM (inactive) | 13 | 6.4 µM (inactive) | 6.3 µM (inactive) | > 25.1 µM (inactive) | 6.38 µM (inactive) | 16.8 µM (inactive) | 7.53 µM (inactive) | 3.53 µM (inactive) | 4.8 µM (inactive) | 16.8 µM (inactive) | 15.3 µM (inactive) | > 23.3 µM (inactive) | 12.3 µM (inactive) | > 32.6 µM (inactive) |  |  |
| O=[N+]([O-])c1cccc2nc3ccccc3c(NCCNCCO)c12 | 0.0121 µM (active) | 0.00337 µM (active) | 0.0178 µM (active) | 0.0158 µM (active) | 0.0405 | 0.00198 µM (active) | 0.0122 µM (active) | 0.011 µM (active) | 0.00402 µM (active) | 0.0166 µM (active) | 0.00109 µM (active) | 0.00558 µM (active) | 0.00513 µM (active) | 0.00134 µM (active) | 0.047 µM (active) | 0.00281 µM (active) | 0.0374 µM (active) | 0.01 µM (active) | 0.00361 µM (active) | 0.0122 µM (active) |
| O=C(NC(Cc1ccc(I)cc1)C(=O)O)c1ccc(I)cc1 (stereo unspecified) | > 100 µM (inactive) | 98.6 µM (inactive) | > 100 µM (inactive) | 48.2 µM (inactive) | 99.1 | > 24.4 µM (inactive) | > 100 µM (inactive) |  | 51.5 µM (inactive) | > 100 µM (inactive) | 38.8 µM (inactive) | 41.5 µM (inactive) | > 100 µM (inactive) | > 60 µM (inactive) | 53.3 µM (inactive) | > 80.4 µM (inactive) | > 100 µM (inactive) | 29.6 µM (inactive) | > 100 µM (inactive) | > 100 µM (inactive) |
| CC(=O)O[C@@H]1[C@H]2[C@@H](OC(=O)c3ccccc3)[C@@H](C)C[C@]2(O)[C@H](OC(C)=O)[C@@]2(C)[C@@H]3C[C@@](C)(OC(C)=O)C[C@@H](OC(C)=O)[C@@]3(OC(C)=O)C[C@@]12C | > 10 µM (inactive) |  | > 10 µM (inactive) | > 10 µM (inactive) | > 10 | > 10 µM (inactive) | > 10 µM (inactive) | > 10 µM (inactive) | > 10 µM (inactive) | > 10 µM (inactive) | > 10 µM (inactive) | > 10 µM (inactive) | > 10 µM (inactive) | > 10 µM (inactive) |  | > 10 µM (inactive) | > 10 µM (inactive) | > 10 µM (inactive) |  | > 10 µM (inactive) |
| c1c2c(cc(-n3nnc4c3CCCCCC4)c1-n1nnc3c1CCCCCC3)CCCCCC2 | 10.4 µM (inactive) |  | 2.12 µM (inactive) | 3.79 µM (inactive) | 5.19 | 18.3 µM (inactive) | 11.8 µM (inactive) | 13.7 µM (inactive) | 2.57 µM (inactive) | 16 µM (inactive) | 0.485 µM (active) | 12.1 µM (inactive) | 8.07 µM (inactive) | 9.46 µM (inactive) | 17.2 µM (inactive) | 13.1 µM (inactive) | 14.8 µM (inactive) | 12.4 µM (inactive) | 6.93 µM (inactive) | 10.8 µM (inactive) |
| COc1ccc2c3c1OC1C(F)C=CC4(O)C(C2)NCCC314 (stereo unspecified) | 4.47 µM (inactive) | 7.23 µM (inactive) | 0.962 µM (active) | 0.348 µM (active) | 2.37 | 4.81 µM (inactive) | 3.33 µM (inactive) | 1.65 µM (inactive) | 0.887 µM (active) | 11.2 µM (inactive) | 0.407 µM (active) | 1.87 µM (inactive) | 1.62 µM (inactive) | 2.59 µM (inactive) | 3.07 µM (inactive) | 2.38 µM (inactive) | 2.92 µM (inactive) | 3.37 µM (inactive) | 2.54 µM (inactive) | 1.98 µM (inactive) |
| Clc1ccc(C(SCc2ccccc2)SCc2ccccc2)cc1 | > 10 µM (inactive) | > 10 µM (inactive) | > 10 µM (inactive) | > 10 µM (inactive) | > 10 | > 10 µM (inactive) | > 10 µM (inactive) | > 10 µM (inactive) | > 10 µM (inactive) | > 10 µM (inactive) | > 10 µM (inactive) | > 10 µM (inactive) | > 10 µM (inactive) | > 10 µM (inactive) | > 10 µM (inactive) | > 10 µM (inactive) | > 10 µM (inactive) | > 10 µM (inactive) | > 10 µM (inactive) | > 10 µM (inactive) |
| CC(NC(=O)C(C)NC(=O)C(N)CCP(C)(=O)O)C(=O)O (stereo unspecified) | > 100 µM (inactive) | > 100 µM (inactive) | > 100 µM (inactive) | > 100 µM (inactive) | > 100 | > 100 µM (inactive) | > 100 µM (inactive) |  | > 100 µM (inactive) | > 100 µM (inactive) | > 100 µM (inactive) | > 100 µM (inactive) | > 100 µM (inactive) | > 100 µM (inactive) | > 100 µM (inactive) | > 100 µM (inactive) | > 100 µM (inactive) | > 100 µM (inactive) | > 100 µM (inactive) | > 100 µM (inactive) |
| COC(=O)c1cc2c(cc1CC(Cc1ccc3c(c1)CCC3)C(=O)OC)CCC2 (stereo unspecified) | > 100 µM (inactive) | 34 µM (inactive) | > 100 µM (inactive) | 29.1 µM (inactive) | 39.2 | > 100 µM (inactive) | 46.1 µM (inactive) | 72.8 µM (inactive) | 26.9 µM (inactive) | 7.24 µM (inactive) | 22.2 µM (inactive) | > 100 µM (inactive) | 18.1 µM (inactive) | 54.6 µM (inactive) | 84.1 µM (inactive) | 44.1 µM (inactive) | 60.1 µM (inactive) | > 100 µM (inactive) | 26.1 µM (inactive) | > 100 µM (inactive) |
| O=C(O)c1cnc2c(ccc3ncc(C(=O)O)c(O)c32)c1O | > 100 µM (inactive) | > 100 µM (inactive) | > 100 µM (inactive) |  | > 100 | > 100 µM (inactive) | > 100 µM (inactive) | > 100 µM (inactive) | > 100 µM (inactive) | > 100 µM (inactive) | > 100 µM (inactive) | > 100 µM (inactive) | > 100 µM (inactive) | > 100 µM (inactive) | > 100 µM (inactive) | > 100 µM (inactive) | > 100 µM (inactive) | > 100 µM (inactive) | > 100 µM (inactive) | > 100 µM (inactive) |
